For data set [1], the system named is HCV replicon in human hepatoma Huh-7 cell line. The data set can be described thus: Anti-HCV replicon assay (EC50, luciferase). It counts as cell-based. Particulars: Hepatitis C virus, Huh-7, 72 h. As to the method:
(§1) The anti-HCV activity of the pyrido[3,2-d]pyrimidine derivatives of this invention was tested in a human hepatoma Huh-7 cell line harboring a HCV replicon. The assay comprised the following steps:
(§2) Step 1: Compound Preparation and Serial Dilution
(§3) • 1. for water soluble pyrido[3,2-d]pyrimidine derivatives, a volume of 500 μL of solution in cell media (DMEM, 10% FBS, P/S, L-Glutamine) was prepared with a concentration being twice the concentration of the starting final serial dilution concentration. A volume of 150 μL of the solution was added to the pre-specified wells in column 1 of a 96-well cell culture plate (PerkinElmer, white plate, cat. #6005181, for EC50 assay; black plate, cat. #6005182 for CC50 assay). The rest of the plate, columns 2-12, was filled with 100 μL of cell media. The plate was then placed on a Precision 2000 Workstation to start the serial dilution. Compounds were diluted three times each step from column 1 to column 10. Column 11 was used as a blank control (no compound added). • 2. for pyrido[3,2-d]pyrimidine derivatives requiring DMSO to dissolve, serial dilution is performed in 50% DMSO in a 384-well plate. A solution containing a compound at 100-fold concentration of the starting final serial dilution concentration was prepared in 50% DMSO and added to the pre-specified wells in column 1 of a polypropylene 384-well plate. The plate was then placed on a Precision 2000 Workstation to start the serial dilution. After the serial dilution, a volume of 2 μL of the solution was transferred from the 384-well plate to a 96-well cell culture plate containing 100 μL of cell media on a Biomek FX Workstation. The DMSO concentration in the final assay condition was 0.5% after cells are added to the plate and the total volume in each well is brought to 200 μL.
(§4) Step 2: to each well of the serial dilution plate prepared above, 100 μL of cell media containing 6000 suspended Huh-7 HCV replicon cells was added with a Multidrop workstation. The plates were incubated for 3 days at 37° C. with 5% CO2.
(§5) • a) for the EC50 assay, the media in a 96-well cell culture plate was aspirated with a Biotek EL405 plate-washer. A volume of 200 μL of a solution containing a 1:1 mixture of cell-lysis buffer (Promega, Luciferase Cell Culture Lysis 5× Reagent, cat. #E1531) and luciferase substrate solution (Promega, Luciferase Assay, cat.#E4550) was added to each well of the plate with Multidrop. The plate was incubated for 30 minutes at room temperature before the luminescence signal was measured with a TopCount plate-reader. • b) for the CC50 assay, a volume of 100 μL of pre-mixed CellTiter-Glo (Promega, cat.#G7572) solution is added directly to the cell culture in each well of the plate and the luminescence signal is measured with a TopCount plate-reader after 10 minutes of incubation at room temperature.

Data set [2] in a line: CC50 assay (CellTiter-Glo) in Huh-7 HCV replicon cells. The format is cell-based, human. Particulars: human, 3 days incubation, CellTiter-Glo readout. As to the method: as §1, §2, §3, §4, §5

For the molecule `C[C@H](O)C(=O)Nc1ccc(-c2ccc3nc(NCc4ccc(S(N)(=O)=O)cc4)nc(NCC(F)(F)F)c3n2)cc1` [Example 210, 2-Hydroxy-N-{4-[2-(4-sulfamoyl-benzylamino)-4-(2,2,2-trifluoro-ethylamino)-pyrido[3,2-d]pyrimidin-6-yl]-phenyl}-propionamide], the EC50 in data set [1] was under 0.1 µM. Further, the CC50 at 3 days in data set [2] was over 25 µM.

In data set [1], `NS(=O)(=O)c1ccc(CNc2nc(NCC(F)(F)F)c3nc(-c4ccc(F)nc4)ccc3n2)cc1` [Example 190, 4-{[6-(6-Fluoro-pyridin-3-yl)-4-(2,2,2-trifluoro-ethylamino)-pyrido[3,2-d]pyrimidin-2-ylamino]-methyl}-benzenesulfonamide] displayed an EC50 of under 0.1 µM. For the same molecule, in data set [2], the CC50 at 3 days is under 5 µM.

As for `CCOc1nc(NCc2ccc(F)cc2)nc2ccc(-c3ccc(C(=O)NC4CC4)cc3)nc12` [Example 65, N-Cyclopropyl-4-[4-ethoxy-2-(4-fluoro-benzylamino)-pyrido[3,2-d]pyrimidin-6-yl]-benzamide], in data set [1], the EC50 was under 0.1 µM. The molecule further displayed a CC50 at 3 days in data set [2] of over 25 µM.

`NS(=O)(=O)c1cccc(CNc2nc(NCC(F)(F)F)c3nc(-c4ccc(F)cc4)ccc3n2)c1` [Example 238, 3-{[6-(4-Fluoro-phenyl)-4-(2,2,2-trifluoro-ethylamino)-pyrido[3,2-d]pyrimidin-2-ylamino]-methyl}-benzenesulfonamide] returned a concentration giving a half-maximal response (EC50) in data set [1] of under 0.1 µM. In data set [2], this molecule had a half-maximal cytotoxic concentration (CC50) at 3 days of under 5 µM.

Turning to `NC(=O)c1ccc(-c2ccc3nc(NCc4ccc(S(N)(=O)=O)cc4)nc(NCC(F)(F)F)c3n2)cc1` [Example 160], the EC50 in data set [1] is under 0.1 µM. In addition, in data set [2], the CC50 at 3 days lay in the range of 5 to 25 µM.

Regarding `CCNc1nc(NCc2ccc(S(N)(=O)=O)cc2)nc2ccc(-c3ccc(F)cc3)nc12` [Example 297, 4-{[4-Ethylamino-6-(4-fluoro-phenyl)-pyrido[3,2-d]pyrimidin-2-ylamino]-methyl}-benzenesulfonamide], the EC50 in data set [1] was under 0.1 µM. Besides, in data set [2], the CC50 at 3 days is under 5 µM.

`CN(CCS(C)(=O)=O)c1nc(NCc2ccc(S(N)(=O)=O)cc2)nc2ccc(-c3ccc(F)cc3)nc12` [Example 152, 4-{[4-(N-(2-Methanesulfonylethyl)-N-methyl)-amino-6-(4-fluorophenyl)-pyrido[3,2-d]pyrimidin-2-ylamino]-methyl}-benzenesulfonamide]: the EC50 in data set [1] is under 0.1 µM. Also, the CC50 at 3 days in data set [2] was under 5 µM.

Take `CC(Nc1nc(NCC(F)(F)F)c2nc(-c3ccc(F)cc3)ccc2n1)c1ccc(S(N)(=O)=O)cc1` (stereo not shown) [Example 249, 4-{1-[6-(4-Fluoro-phenyl)-4-(2,2,2-trifluoro-ethylamino)-pyrido[3,2-d]pyrimidin-2-ylamino]-ethyl}-benzenesulfonamide]: the EC50 in data set [1] is under 0.1 µM. This molecule also yielded a CC50 at 3 days in data set [2] of under 5 µM.

As for `CCOc1nc(NCc2cccc(Cl)c2F)nc2ccc(-c3ccc(F)cc3)nc12` [Example 48, (3-Chloro-2-fluoro-benzyl)-[4-ethoxy-6-(4-fluoro-phenyl)-pyrido[3,2-d]pyrimidin-2-yl]-amine], the EC50 in data set [1] is under 0.1 µM. For the same molecule, in data set [2], the CC50 at 3 days was over 25 µM.

`CCOc1nc(NCc2ccc(S(N)(=O)=O)cc2)nc2ccc(-c3ccc(N4CCC(O)C4=O)cc3)nc12` (stereo not shown) [Example 122, 4-{[4-Ethoxy-6-(4-(3-hydroxy-2-oxopyrrolidin-1-yl)-phenyl)-pyrido[3,2-d]pyrimidin-2-ylamino]-methyl}-benzenesulfonamide]: in data set [1], the EC50 was under 0.1 µM. The CC50 at 3 days in data set [2] was over 25 µM.

On to `Nc1cc(-c2ccc3nc(NCc4ccc(S(N)(=O)=O)cc4)nc(NCC(F)(F)F)c3n2)ccn1` [Example 169, 4-{[6-(2-Amino-pyridin-4-yl)-4-(2,2,2-trifluoro-ethylamino)-pyrido[3,2-d]pyrimidin-2-ylamino]-methyl}-benzenesulfonamide], for which, in data set [1], the EC50 is under 0.1 µM. Also, in data set [2], the half-maximal cytotoxic concentration (CC50) at 3 days was over 25 µM.
